The values below are quoted from earlier work in patent US7419995B2, “N-substituted benzimidazoyl c-Kit inhibitors and combinatorial benzimidazole library” (OSI Pharmaceuticals, Inc., priority 2004, dated 2008).

Where a name gives a salt, the structure may show the parent alone.

This data set deals with MO7e human leukemia cells.

Regarding `Cc1ccc(NC(=O)c2ccc(CN3CCN(C)CC3)cc2)cc1Nc1nccc(-c2cccnc2)n1` [Gleevec, imatinib mesylate], the “GM-CSF stimulated growth of MO7e cells” value (GM-CSF stimulated) is reported as “not affected”. Besides, under “Kit ligand-stimulated”, the “Kit ligand-stimulated growth of MO7e cells” value is reported as “inhibited”. For the same compound, the “apoptosis of MO7e cells” value (Kit ligand-stimulated conditions) is listed as “induces apoptosis”.
